Laboratory results: patent publication US20240109937A1, “BINDING PEPTIDES AND USES THEREOF” (The Johns Hopkins University, priority 2021, published 2024)

Columns and labels:
Type in all cases: cell-based, mouse
[1] = system: HL-1 cells; test: Intracellular Ca2+ (Fluo4 FF fluorescence) in HL-1 cells; conditions: Calcimycin 1 μM in HBS KV medium
Method: Calcium (Ca^2+) Overload Protocol: Rapid and sustained intracellular Ca^2+ overload was obtained by adding the Ca^2+-ionophore, calcimycin (1 μM), to HL-1 cells incubated for 10 min in HBS KV medium (1.26 mM CaCl2, 0.81 mM MgSO4, 0.44 mM KH2PO4, 142 mM KCl, 0.27 mM K2HPO4, 5.55 mM D-glucose, 1 mM Na3VO4, 20 mM Hepes pH 7.4). To monitor intracellular Ca^2+ variations, HL-1 cells were loaded with 5 μM Fluo-4 FF AM (Molecular Probes) in HBS Na (Sigma) for 30 min before the media was replaced with HBS KV.

[2] = system: truncated AIF (tAIF, 57 kDa); test: Immunoblot of truncated AIF in ISO/Ca2+-treated ES-CMs (chronic CAPN1 inhibition); conditions: Dsg2^mut/mut ES-CMs, 7 days 50 μM ISO/1 μM Ca2+, calpeptin pretreatment
Method: (§1) Mouse embryonic stem cells (ESs) were maintained and differentiated, and the absence of mycoplasma contamination was confirmed prior to experimental studies. Briefly, mouse ESs from both WT and Dsg2^mut/mut mice were derived from E3.5 embryos and maintained on gelatin-coated dishes in maintenance medium (Glasgow minimum essential medium supplemented with 10% fetal bovine serum and 3 μM Chir99021 and 1 μM PD98059 or 1000 U/ml ESGRO; Millipore), Glutamax, sodium pyruvate, and MEM non-essential amino acids (Thermo Fisher Scientific). For cardiomyocyte (CM) differentiation, ESs were plated in IMDM/Ham's F12 (Cellgro, at 3:1) supplemented with N2, B27, penicillin/streptomycin, 2 mM GlutaMAX, 0.05% BSA, 5 ng/ml L-ascorbic acid (Sigma-Aldrich), and α-monothioglycerol (MTG; Sigma-Aldrich) at a final density of 100,000 cells/ml to allow spheroid formation. After 48 hours, embryoid bodies were collected and transferred to ultra-low attachment plastic surface and induced for 40 hours with Activin A and Bmp4 (R&D Systems). Cells were then dissociated and plated as monolayers for 48 hours in the presence of 10 μM XAV to allow cardiomyocyte differentiation. The resulting ES-CMs were cultured 45 days before experimental procedures were performed.

[3] = system: cleaved (75 kDa) CAPN1; test: Immunoblot of active CAPN1 in ISO/Ca2+-treated ES-CMs (chronic CAPN1 inhibition); conditions: Dsg2^mut/mut ES-CMs, 7 days 50 μM ISO/1 μM Ca2+, calpeptin pretreatment
Method: as §1

[4] = system: HL-1 cells; test: Cell viability assay (LDH release) in HL-1 cells under Ca2+ overload; conditions: Calcimycin 1 μM in HBS KV medium, dose-dependent response
Method: Calcium (Ca^2+) Overload Protocol: Rapid and sustained intracellular Ca^2+ overload was obtained by adding the Ca^2+-ionophore, calcimycin (1 μM), to HL-1 cells incubated for 10 min in HBS KV medium (1.26 mM CaCl2, 0.81 mM MgSO4, 0.44 mM KH2PO4, 142 mM KCl, 0.27 mM K2HPO4, 5.55 mM D-glucose, 1 mM Na3VO4, 20 mM Hepes pH 7.4). To monitor intracellular Ca^2+ variations, HL-1 cells were loaded with 5 μM Fluo-4 FF AM (Molecular Probes) in HBS Na (Sigma) for 30 min before the media was replaced with HBS KV. […] Cell Viability Assay: HL-1 plasma membrane integrity was assessed by measuring lactate dehydrogenase (LDH) release in the culture supernatant. An enzymatic assay evaluated LDH activity. Samples of the cell-free culture supernatant were collected at indicated times in Figures/Figure Legends, while cells were lysed in 1% (w/v) Triton X-100 at the end of each experiment to estimate the remaining cellular content of LDH. The LDH activity at each time point was expressed as a percentage of total LDH activity.

CCCC[C@@H](C=O)NC(=O)[C@H](CC(C)C)NC(=O)OCc1ccccc1 [calpeptin]
kinetics of cytosolic Ca2+ accumulation [1]: neither of them had an impact | levels of tAIF (57 kDa) [2]: significantly lowered | levels of cleaved (75 kDa) CAPN1 [3]: significantly lowered | reduction in cell death (LDH release) [4]: ~40%
